Key:
ALOMY [1] = assay: Pre-emergence action against ALOMY, 1280 g/ha; format: in vivo, Alopecurus myosuroides; details: visual scoring after about 3 weeks vs untreated controls, 100% = plants have died, 0% = like control plants
From the text: (§1) 1. Pre-Emergence Herbicidal Effect and Crop Plant Compatibility a) Seeds of mono- and dicotyledonous weed plants are placed in plastic pots in sandy loam soil (doubly sown with one species each of mono- or dicotyledonous weed plants per pot) and covered with soil. The compounds of the invention, formulated in the form of wettable powders (WP) or as emulsion concentrates (EC), are then applied onto the surface of the covering soil as aqueous suspension or emulsion with addition of 0.5% additive at a water application rate equivalent to 600 litres per hectare. After the treatment, the pots are placed in a greenhouse and kept under good growth conditions for the trial plants. After about 3 weeks, the effect of the preparations is scored visually in comparison with untreated controls as percentages. For example, 100% activity=the plants have died, 0% activity=like control plants. 1. Pre-Emergence Effectiveness Tables 1 to 12 below show the effects of selected compounds of the general formula (I) according to Tables 1 and 2 on various harmful plants and at an application rate corresponding to 1280 g/ha, which were obtained by the experimental procedure mentioned above.

DIGSA [2] = assay: Pre-emergence action against DIGSA, 1280 g/ha; format: in vivo, Digitaria sanguinalis; details: visual scoring after about 3 weeks vs untreated controls, 100% = plants have died, 0% = like control plants
From the text: as §1

LOLRI = assay: Pre-emergence action against LOLRI, 1280 g/ha; format: in vivo, Lolium rigidum; details: visual scoring after about 3 weeks vs untreated controls, 100% = plants have died, 0% = like control plants
From the text: as §1

POAAN [3] = assay: Pre-emergence action against POAAN, 1280 g/ha; format: in vivo, Poa annua; details: visual scoring after about 3 weeks vs untreated controls, 100% = plants have died, 0% = like control plants
From the text: as §1

SETVI = assay: Pre-emergence action against SETVI, 1280 g/ha; format: in vivo, Setaria viridis; details: visual scoring after about 3 weeks vs untreated controls, 100% = plants have died, 0% = like control plants
From the text: as §1

AMARE [4] = assay: Pre-emergence action against AMARE, 1280 g/ha; format: in vivo, Amaranthus retroflexus; details: scored visually after about 3 weeks vs untreated controls (100% = plants have died)
From the text: as §1

MATIN [5] = assay: Pre-emergence action against MATIN, 1280 g/ha; format: in vivo, Tripleurospermum inodorum (Matricaria inodora); details: scored visually after about 3 weeks vs untreated controls (100% = plants have died)
From the text: as §1

STEME = assay: Pre-emergence action against STEME, 1280 g/ha; format: in vivo, Stellaria media; details: scored visually after about 3 weeks vs untreated controls (100% = plants have died)
From the text: as §1

VERPE [6] = assay: Pre-emergence action against VERPE, 1280 g/ha; format: in vivo, Veronica persica; details: scored visually after about 3 weeks vs untreated controls (100% = plants have died)
From the text: as §1

AMARE [7] = assay: Post-emergence action against AMARE, 1.28 kg/ha; format: in vivo, Amaranthus retroflexus; details: dosage 1280 g/ha, visual rating about 3 weeks after treatment vs untreated controls (100% = plants died)
Protocol: (§2) • a) Seeds of mono- and dicotyledonous weed plants are placed in plastic pots in sandy loam soil (twin sowing with one species each of mono- or dicotyledonous weed plants per pot), covered with soil and cultivated in a greenhouse under controlled growth conditions. 2 to 3 weeks after sowing, the test plants are treated at the one-leaf stage. The compounds of the invention, formulated in the form of wettable powders (WP) or as emulsion concentrates (EC), are applied to the green parts of the plants as aqueous suspension or emulsion with addition of 0.5% additive at a water application rate equivalent to 600 litres per hectare. After the test plants have been kept in the greenhouse under optimum growth conditions for about 3 weeks, the activity of the preparations is rated visually in comparison to untreated controls. For example, 100% activity=the plants have died, 0% activity=like control plants. As shown by the results, compounds of the general formula (I) of the invention, in post-emergence treatment, have very good herbicidal efficacy (90% to 100% herbicidal action) against harmful plants such as Abutilon theophrasti, Digitaria sanguinalis, Echinochloa crus-galli, Matricaria inodora, Poa annua, at an application rate of 1.28 kg of active substance per hectare.

ECHCG = assay: Pre-emergence action against ECHCG, 1280 g/ha; format: in vivo, Echinochloa crus-galli; details: visual scoring after about 3 weeks vs untreated controls, 100% = plants have died, 0% = like control plants
From the text: as §1

ALOMY [8] = assay: Post-emergence action against ALOMY, 1.28 kg/ha; format: in vivo, Alopecurus myosuroides; details: dosage 1280 g/ha, visual rating about 3 weeks after treatment vs untreated controls
Protocol: as §2

POAAN [9] = assay: Post-emergence action against POAAN, 1.28 kg/ha; format: in vivo, Poa annua; details: dosage 1280 g/ha, visual rating about 3 weeks after treatment vs untreated controls
Protocol: as §2

MATIN [10] = assay: Post-emergence action against MATIN, 1.28 kg/ha; format: in vivo, Tripleurospermum inodorum (Matricaria inodora); details: dosage 1280 g/ha, visual rating about 3 weeks after treatment vs untreated controls (100% = plants died)
Protocol: as §2

VERPE [11] = assay: Post-emergence action against VERPE, 1.28 kg/ha; format: in vivo, Veronica persica; details: dosage 1280 g/ha, visual rating about 3 weeks after treatment vs untreated controls (100% = plants died)
Protocol: as §2

DIGSA [12] = assay: Post-emergence action against DIGSA, 1.28 kg/ha; format: in vivo, Digitaria sanguinalis; details: dosage 1280 g/ha, visual rating about 3 weeks after treatment vs untreated controls
Protocol: as §2

Structure (SMILES) | Pre-emergence action against ALOMY (ALOMY [1]) [%] | Pre-emergence action against DIGSA (DIGSA [2]) [%] | Pre-emergence action against POAAN (POAAN [3]) [%] | Pre-emergence action against SETVI (SETVI) [%] | Pre-emergence action against AMARE (AMARE [4]) [%] | Pre-emergence action against MATIN (MATIN [5]) [%] | Pre-emergence action against STEME (STEME) [%] | Pre-emergence action against VERPE (VERPE [6]) [%] | Post-emergence action against AMARE (AMARE [7]) [%] | Post-emergence action against ALOMY (ALOMY [8]) [%] | Post-emergence action against POAAN (POAAN [9]) [%] | Post-emergence action against MATIN (MATIN [10]) [%] | Post-emergence action against VERPE (VERPE [11]) [%] | also measured
COC(=O)[C@@H](C)Oc1nn(-c2ccccc2F)c(-c2cnccn2)c1Br [Example I-001] | 90 | 90 | 100 | 90 | 100 | 90 | 100 | 100 | 90 |  |  |  |  | Pre-emergence action against LOLRI (LOLRI): 90%
O=C(COc1nn(-c2ccccc2F)c(-c2ccc(F)nc2)c1Br)N1CCSC1=O [Example X-011] |  | 100 | 100 | 100 | 100 | 90 |  | 100 | 90 | 90 | 100 | 100 | 90 | Pre-emergence action against ECHCG (ECHCG): 100%
O=C(O)C1CCCN(C(=O)COc2nn(-c3ccccc3F)c(-c3cncc(F)c3)c2Br)C1 (stereo not drawn) [Example X-033] | 90 | 90 | 100 | 90 | 90 | 90 | 90 | 90 | 100 | 100 | 100 | 100 | 100 | Post-emergence action against DIGSA (DIGSA [12]): 90%
N#CCCNC(=O)COc1nn(-c2ccccc2F)c(-c2ccc(F)cn2)c1Br [II-005] |  |  |  |  | 90 |  |  |  |  |  |  |  |  | 
COC(=O)CNC(=O)COc1nn(-c2ccccc2F)c(-c2ccc(F)cn2)c1Br [II-013] | 90 | 100 | 100 | 100 | 90 | 90 | 100 | 100 |  | 90 | 90 | 90 | 90 | Pre-emergence action against ECHCG (ECHCG): 90%; Pre-emergence action against LOLRI (LOLRI): 100%
O=C(COc1nn(-c2ccc(F)cc2F)c(-c2ccc(F)cn2)c1Br)NO [II-018] |  |  |  |  |  |  |  |  | 100 |  |  | 90 |  | 
CCOC(=O)COc1nn(-c2ccccc2F)c(-c2ccnnc2)c1C#N [IV-003, Ethyl {[4-cyano-1-(2-fluorophenyl)-5-(pyridazin-4-yl)-1H-pyrazol-3-yl]oxy}acetate] |  |  |  |  |  |  |  |  | 90 | 100 |  |  |  | pest or weed control at 1280 g/ha (POAAN [3]; Poa annua, 504 h): 90%; pest or weed control at 1280 g/ha (SETVI; Setaria viridis, 504 h): 100%; pest or weed control at 1280 g/ha (AMARE [4]; Amaranthus retroflexus, 504 h): 90%; pest or weed control at 1280 g/ha (MATIN [5]; Tripleurospermum inodorum, 504 h): 90%; pest or weed control at 1280 g/ha (STEME; Stellaria media, 504 h): 100%; pest or weed control at 1280 g/ha (VERPE [6]; Veronica persica, 504 h): 100%; pest or weed control at 1280 g/ha (VERPE [11]; Veronica persica, 504 h): 90%
COC(=O)[C@@H](C)Oc1nn(-c2ccccc2F)c(-c2cncnc2)c1Cl [VI-017] | 90 |  | 90 |  | 100 | 100 | 90 | 100 | 90 |  |  |  |  | 

— patent publication US12180187B2, “1-phenyl-5-azinylpyrazolyl-3-oxyalkyl acids and their use for controlling unwanted plant growth” (BAYER AKTIENGESELLSCHAFT, priority 2019, dated 2024)
